Experimental data taken from publication PMC6892925, “Development of Novel Silyl Cyanocinnamic Acid Derivatives as Metabolic Plasticity Inhibitors for Cancer Treatment” (Scientific Reports, 2019).
“Also recorded” adds a separate entry of the source.

Tests used:
MCF7 cell line = test: MTT cell proliferation inhibition assay; settings: Homo sapiens, MCF7, read-out: MTT IC50
Experimental: (§5) Human triple-negative breast cancer MDA-MB-231 cells (ATCC) were grown in DMEM supplemented with 10% FBS (Atlanta Biologicals) and penicillin-streptomycin (50U/ml, 50 µg/ml, Invitrogen). Human colorectal adenocarcinoma WiDr cells (ATCC) were cultured in MEM medium supplemented with 10% FBS and penicillin-streptomycin. […] Murine metastatic breast cancer 4T1 cells were grown in RPMI-1640 supplemented with 10% FBS and penicillin-streptomycin. Human estrogen receptor positive breast cancer MCF7 cells (Masonic Cancer Center, University of Minnesota) were grown in MEM supplemented with 6% FBS, EGF (0.01 µg/ml), NEAA, HDC (1 µg/ml), insulin (10 µg/ml), HEPES (12 mM) and sodium pyruvate (1 mM).
(§6) Cell proliferation inhibition was evaluated using 3-(4,5-dimethylthiazol-2-yl)-2,5-diphenyl tetrazolium bromide (MTT) assay as reported previously[19].

MCT1 = biological target: T1, MCT1 (Rattus norvegicus, UniProt P53987); test: MCT1 inhibition assay via L-[14C]-lactate uptake in RBE4 cells; format: cell-based; settings: L-[14C]-lactate uptake, MCT1 expressing RBE4 cell line; average ± SEM of three separate experiments; read-out: MCT1 IC50
T1 construct: using an L-[^14C]-lactate study on the MCT1 expressing RBE4 cell line; endogenous in cells; host or cells: RBE4 (rat brain endothelial 4) cells, a gift from F. Roux
T1 sequence (P53987 1-494): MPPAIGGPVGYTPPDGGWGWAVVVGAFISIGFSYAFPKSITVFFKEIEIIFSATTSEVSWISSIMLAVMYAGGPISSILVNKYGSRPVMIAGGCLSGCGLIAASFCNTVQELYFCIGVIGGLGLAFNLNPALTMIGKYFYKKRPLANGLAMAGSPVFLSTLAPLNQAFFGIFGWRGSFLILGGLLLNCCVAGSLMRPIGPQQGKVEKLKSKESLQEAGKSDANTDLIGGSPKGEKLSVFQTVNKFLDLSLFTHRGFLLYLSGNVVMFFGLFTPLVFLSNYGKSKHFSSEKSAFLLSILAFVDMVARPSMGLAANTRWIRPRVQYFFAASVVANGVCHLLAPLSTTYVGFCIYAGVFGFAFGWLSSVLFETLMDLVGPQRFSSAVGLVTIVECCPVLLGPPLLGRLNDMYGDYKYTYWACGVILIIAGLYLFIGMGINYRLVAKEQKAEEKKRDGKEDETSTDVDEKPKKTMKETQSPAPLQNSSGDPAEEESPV

MDA-MB-231 cells = test: Mitotracker Red CMXROS fluorescent microscopy; format: cell-based, human; settings: 30 μM, 24-hour exposure
Experimental: (§1) To evaluate the effects on mitochondrial morphology and vitality, Mitotracker Red CMXROS (MTR) fluorescence imaging experiments were employed. […] Furthermore, differential interference contrast (DIC) microscope images illustrate substantial membrane blebbing and vesiculation in compound treated cultures (Fig. 6).
(§2) MDA-MB-231 or WiDr cells (5 × 10^4 cells/mL) were seeded in glass-bottom dishes (MatTek Corp, part no. P35G010C) and incubated for 48 hours. Test compound (30 μM) was added and cells were again incubated for 24 hours prior to fluorescent microscopic imaging. In some cultures, MitoTracker Red CMXROS (Invitrogen, M7512, 100 nM) was added 15 min prior to imaging. The growth media was removed and replaced with 5% FBS in 1X PBS for imaging. Cells were then examined and photographed using a Nikon TE2000 epifluorescent microscope and camera. The images shown are representative of at least 3 fields of view of three separate experiments.

WiDr cells = test: Mitotracker Red CMXROS fluorescent microscopy; format: cell-based, human; settings: 30 μM, 24-hour exposure
Experimental: as §1, §2

[1] = test system: MCT4 expressing MDA-MB-231 cell line; test: Seahorse XFe96 glycolysis stress test (ECAR); format: cell-based, human; settings: 30 µM, MDA-MB-231, vs DMSO control
Experimental: (§3) Candidate compounds 2a and 2b were evaluated for their effect on glycolysis, glycolytic capacity and glycolytic reserve. This assay measures extracellular acidification rate (ECAR) which is directly correlated with the rate of glycolysis. The ECAR for both cell lines in the presence of the test compounds can be seen above (Fig. 4B,C). In this assay, cells were initially starved of glucose to reduce their ECAR. Upon addition of glucose, a rise in ECAR was observed proportional to the rate of glycolysis in each cell line. An increase in basal levels of glycolysis in cells treated with test compounds compared to the controls represents a shift toward dependency on glycolysis for ATP production. […] Glycolytic capacity is the maximum rate of glycolysis the cell can attain in the absence of OxPhos as an ATP source.
(§4) 20,000 cells/well were plated in 96-well Seahorse plates (Agilent, part no. 101085-004) and incubated 16–24 hours at 37 °C at 5% CO2. Flux pack sensors (Agilent, part no. 102416-100) were hydrated with XF calibrant solution (Agilent, part no. 100840-000) overnight at 37 °C in a non-CO2 incubator. The serum free assay media was prepared from Seahorse base medium (Agilent, part no. 102353-100) enriched with glutamine (1 mM) and sodium pyruvate (1 mM). The pH of the media was adjusted to 7.4. For glycolysis stress test the serum free assay media was used. For the mitochondrial stress test glucose (10 mM) was added to make an enriched serum free assay media. For both stress tests an 8X stock concentration of test compounds in their respective media was prepared for microplate injections in port A. Stock solutions of glucose (90 mM), oligomycin (10 μM), and 2-deoxyglucose (Chem Impex, 550 mM) were prepared such that their final working concentrations are 10 mM, 1 μM and 50 mM, respectively, for glycolysis stress test. For mitochondrial stress test, stock solutions of oligomycin (9 µM), FCCP (2.5–10 µM, cell line dependent), rotenone + antimycin A (5.5 µM) were prepared such that their final concentrations were 1 µM, 0.25–1 µM, and 0.5 µM, respectively in the enriched test media. Under glycolytic stress test, the cells were treated with test compounds, followed by the addition of glucose, oligomycin and 2-deoxyglucose at 14.29, 33.8, 53.35, 72.87 minutes, respectively. Under mitochondrial stress test, cells were treated with test compounds, followed by the addition of oligomycin, FCCP, and rotenone + antimycin A, at 14.29, 33.8, 53.35, 72.87 minutes, respectively. Extracellular acidification rates (ECAR) and oxygen consumption rates (OCR) were recorded in real-time for glycolysis and mitochondrial stress tests, respectively, using a Seahorse XFe96® analyzer (Agilent). The parameters related to glycolytic and mitochondrial functions were calculated utilizing the Wave 2.4.0 software (Agilent). ATP rate assay experiment was performed using manufactures (Agilent) protocol, and respective mitochondrial and glycolytic ATP rates were normalized to protein (BCA assay) and calculated using Wave 2.4.0 software.

[2] = test system: MCT1 expressing WiDr cell line; test: Seahorse XFe96 glycolysis stress test (ECAR); format: cell-based, human; settings: 30 µM, vs DMSO control
Experimental: as §3, §4

4T1 cell line = test: MTT cell proliferation inhibition assay; settings: Mus musculus, 4T1, read-out: MTT IC50
Experimental: as §5, §6

Row | Structure (SMILES) | IC50 (MCF7 cell line) | IC50 (MCT1) | MTR fluorescence / mitochondrial morphology (MDA-MB-231 cells) | MTR fluorescence / mitochondrial morphology (WiDr cells) | basal glycolysis (ECAR) [1] | glycolytic capacity (ECAR) [1] | glycolytic reserve (ECAR) [1] | basal glycolysis (ECAR) [2] | glycolytic reserve (ECAR) [2] | IC50 (4T1 cell line)
1 | CC(C)(C)[Si](Oc1ccc(/C=C(\C#N)C(=O)O)cc1)(c1ccccc1)c1ccccc1 [2a] | 39 ± 3 µM | 0.408 ± 0.005 µM | more diffuse and dim general cytoplasmic fluorescence; also recorded: substantial redistribution of MTR | more diffuse and dim general cytoplasmic fluorescence; also recorded: substantial redistribution of MTR | significantly increased | significantly reduced | significant decrease | significantly increased | significant decrease | 56 ± 1 µM
2 | CC(C)(C)[Si](OCCOc1ccc(/C=C(\C#N)C(=O)O)cc1)(c1ccccc1)c1ccccc1 [2b] | 35 ± 3 µM | 0.097 ± 0.007 µM |  |  | significantly increased | significantly reduced | significant decrease | significantly increased | significant decrease | 22 ± 1 µM
